Source: the supplement of paper PMC11208160

assay: recombinant UMI read abundance after kanamycin selection (control-corrected) (log10(CPM+1)); higher = more efficient recombination; extreme values may be limits of the assay; sequences stand for … in AGTGCAGAGAAAATCGGCCAGTTTTCTCTGCCTGCAGTCCGCATGCCGTGGGACCCCTTGGGTTCTAACCTGTTGCCTAGATTTATGCAGCGGACTGCCTTTCTCCCAAAGTGATAAACCGG…AGGTTGGTTTCACT; site = the 11-nt donor
Outline: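 Each donor and donor-binding-loop pair was tracked by a 12-nt UMI on a plasmid carrying a promoterless kanamycin gene. With a second plasmid supplying a fixed target and T7-inducible IS621 bridge recombinase, the pool was plated in Escherichia coli on IPTG (0.07 mM) plus kanamycin or unselected. Sequencing of recombinant UMIs across the donor–target junction gave counts expressed as log10(CPM+1) after replicate averaging and control-derived scaling.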
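Further: IS621 bridge recombinase in Escherichia coli cells against a fixed T5 target plasmid.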

Sequence	recombinant UMI read abundance (log10)
CCCATATCATGGACCGGTTTTCCCGGTAATCCGTATTTGTC (site CCCATATCTGC)	0
CCCATATCATGGACCGGTTTTCCCGGTAATCCGTATTTGTC (site CCCATATCTGG)	0
CCCATATCATGGACCGGTTTTCCCGGTAATCCGTATTTGTC (site CCCATATCTGT)	0
CCCATATCATGGACCGGTTTTCCCGGTAATCCGTATTTGTC (site CCCATATCTTA)	0
CCCATATCATGGACCGGTTTTCCCGGTAATCCGTATTTGTC (site CCCATCTCTGA)	0
CCCATATCATGGACCGGTTTTCCCGGTAATCCGTATTTGTC (site CCCATGTCTGA)	0
CCCATATCATGGACCGGTTTTCCCGGTAATCCGTATTTGTC (site CCCATTTCTGA)	0.731
CCCATATCATGGACCGGTTTTCCCGGTAATCCGTATTTGTC (site CCCCTATCTGA)	0
CCCATATCATGGACCGGTTTTCCCGGTAATCCGTATTTGTC (site CCCGTATCTGA)	0
CCCATATCATGGACCGGTTTTCCCGGTAATCCGTATTTGTC (site CCCTTATCTGA)	0.395
CCCATATCATGGACCGGTTTTCCCGGTAATCCGTATTTGTC (site CCGATATCTGA)	0
CCCATATCATGGACCGGTTTTCCCGGTAATCCGTATTTGTC (site CCTATATCTGA)	0
CCCATATCATGGACCGGTTTTCCCGGTAATCCGTATTTGTC (site CGCATATCTGA)	0
CCCATATCATGGACCGGTTTTCCCGGTAATCCGTATTTGTC (site CTCATATCTGA)	0
CCCATATCATGGACCGGTTTTCCCGGTAATCCGTATTTGTC (site GCCATATCTGA)	0
CCCATATCATGGACCGGTTTTCCCGGTAATCCGTATTTGTC (site TCCATATCTGA)	0
CCCCAAACATGGACCGGTTTTCCCGGTAATCCGTATTTGTA (site CCCCAAACTTA)	0.19
CCCCAAACATGGACCGGTTTTCCCGGTAATCCGTATTTGTA (site CCCCACACTTA)	0.0105
CCCCAAACATGGACCGGTTTTCCCGGTAATCCGTATTTGTA (site CCCCAGACTTA)	0.00667

Sequence	recombinant UMI read abundance (log10)
CCCCAAACATGGACCGGTTTTCCCGGTAATCCGTATTTGTA (site CCCCATACTTA)	0.102
CCCCACCCATGGACCGGTTTTCCCGGTAATCCGTATTTGTA (site CCCCACACTTA)	0.0263
CCCCACCCATGGACCGGTTTTCCCGGTAATCCGTATTTGTA (site CCCCACCCTTA)	0.00842
CCCCACCCATGGACCGGTTTTCCCGGTAATCCGTATTTGTA (site CCCCACGCTTA)	0.0484
CCCCACCCATGGACCGGTTTTCCCGGTAATCCGTATTTGTA (site CCCCACTCTTA)	1.78
CCCCACTCATGGACCGGTTTTCCCGGTAATCCGTATTTGAC (site CCCCACTCTGT)	1.04
CCCCATACATGGACCGGTTTTCCCGGTAATCCGTATTTGTA (site CCCCAAACTTA)	0
CCCCATACATGGACCGGTTTTCCCGGTAATCCGTATTTGTA (site CCCCACACTTA)	0.0183
CCCCATACATGGACCGGTTTTCCCGGTAATCCGTATTTGTA (site CCCCAGACTTA)	0
CCCCATACATGGACCGGTTTTCCCGGTAATCCGTATTTGTA (site CCCCATACTTA)	0.512
CCCCGTCCATGGACCGGTTTTCCCGGTAATCCGTATTTGCA (site CCCAGTCCTTG)	0
CCCCGTCCATGGACCGGTTTTCCCGGTAATCCGTATTTGCA (site CCCCGTCCTTG)	0.809
CCCCGTCCATGGACCGGTTTTCCCGGTAATCCGTATTTGCA (site CCCGGTCCTTG)	0.0123
CCCCGTCCATGGACCGGTTTTCCCGGTAATCCGTATTTGCA (site CCCTGTCCTTG)	0.00689
CCCCTCCCATGGACCGGTTTTCCCGGTAATCCGTATTTGCG (site CCCCTCCCTCG)	0.014
CCCGACACATGGACCGGTTTTCCCGGTAATCCGTATTTGTA (site CCCAACACTTA)	0.221
CCCGACACATGGACCGGTTTTCCCGGTAATCCGTATTTGTA (site CCCCACACTTA)	0.00237
CCCGACACATGGACCGGTTTTCCCGGTAATCCGTATTTGTA (site CCCGACACTTA)	0.974
CCCGACACATGGACCGGTTTTCCCGGTAATCCGTATTTGTA (site CCCTACACTTA)	0.0106

Sequence	recombinant UMI read abundance (log10)
CCCGCGTCATGGACCGGTTTTCCCGGTAATCCGTATTTGTC (site CCCGCGTCTGA)	0.515
CCCGGTACATGGACCGGTTTTCCCGGTAATCCGTATTTGCA (site CCCGGTACTTG)	0.751
CCCGGTACATGGACCGGTTTTCCCGGTAATCCGTATTTGCA (site CCCGGTCCTTG)	0
CCCGGTACATGGACCGGTTTTCCCGGTAATCCGTATTTGCA (site CCCGGTGCTTG)	0
CCCGGTACATGGACCGGTTTTCCCGGTAATCCGTATTTGCA (site CCCGGTTCTTG)	0
CCCGGTGCATGGACCGGTTTTCCCGGTAATCCGTATTTGAT (site CCAGGTGCTAT)	0.119
CCCGGTGCATGGACCGGTTTTCCCGGTAATCCGTATTTGAT (site CCCGGTGCTAT)	0.907
CCCGGTGCATGGACCGGTTTTCCCGGTAATCCGTATTTGAT (site CCGGGTGCTAT)	0.0111
CCCGGTGCATGGACCGGTTTTCCCGGTAATCCGTATTTGAT (site CCTGGTGCTAT)	0.00284
CCCGGTGCATGGACCGGTTTTCCCGGTAATCCGTATTTGCA (site CCCGGTACTTG)	0
CCCGGTGCATGGACCGGTTTTCCCGGTAATCCGTATTTGCA (site CCCGGTCCTTG)	0.0126
CCCGGTGCATGGACCGGTTTTCCCGGTAATCCGTATTTGCA (site CCCGGTGCTTG)	0
CCCGGTGCATGGACCGGTTTTCCCGGTAATCCGTATTTGCA (site CCCGGTTCTTG)	0
CCCGTATCATGGACCGGTTTTCCCGGTAATCCGTATTTGTC (site CCCATATCTGA)	0.605
CCCGTATCATGGACCGGTTTTCCCGGTAATCCGTATTTGTC (site CCCCTATCTGA)	0.0235
CCCGTATCATGGACCGGTTTTCCCGGTAATCCGTATTTGTC (site CCCGTATCTGA)	1.83
CCCGTATCATGGACCGGTTTTCCCGGTAATCCGTATTTGTC (site CCCTTATCTGA)	0
CCCGTCCCATGGACCGGTTTTCCCGGTAATCCGTATTTGGA (site CCCGTCCCTTC)	0.00421
CCCGTGACATGGACCGGTTTTCCCGGTAATCCGTATTTGAT (site CCCGTGACTAT)	1.05
